What was measured:
[1] = system: focal cerebral ischemia in rats; assay: Memory disorder induced by focal cerebral ischemia (shuttle box, artery ligation by method of Tamura); format: in vivo, male Wistar rats; conditions: 15 and 30 mg/kg oral 15 min after operation; observed after 24 hours; vs vehicle control
Protocol: Experimental Animal: The same as Example 1. Experimental Equipment: Shuttle box. Experimental Methods: • 1. Rats were trained to acquire learning and memory; • 2. Artery ligation: Artery ligation was conducted on rats according to the method of Tamura. After 24 hours, the experiment of learning as in step (1) was repeatedly conducted on rats. • 3. Grouping and administration: the rats were divided into 9 groups, which were normal group, pseudo-operation group, ischemia control group, and groups of dl-, d-, and l-NBP (15 and 30 mg/kg). The rats were orally administered at 15 min after the operation, and the changes of latency of active and passive avoidance response were observed after 24 hours.

normal rats = format: in vivo, Male wistar rats; conditions: 15 and 30 mg/kg oral; for cerebral blood flow rate in normal rats: 30 minutes after administration
Protocol: Experimental Animals: Male wistar rats.
Experimental Equipments: SXP operating microscope, 62TZ-V model high frequency electrotome, solid positioner, Diamond Electro-Tech chemical microsensor 1231, two channel physiological parameter recorder.
Experimental Methods: • (1) dl-, d-, and l-NBP (15 and 30 mg/kg) and the vehicle were orally administered to the normal rats, and the changes of cerebral blood flow at different time after the administration were measured. • (2) ligation of cerebral artery was conducted on rats according to the method of Tamura. Oral administration was performed at 10 min after the operation. The rats were divided into 9 groups, which were normal group, pseudo-operation group, vehicle control group, and groups of dl-, d-, and l-NBP (15 and 30 mg/kg).

[2] = system: permanent cerebral ischemic rats; assay: Behavioral disorder and cerebral infarct area in permanent cerebral ischemic rats (FeCl3 on middle cerebral artery); format: in vivo, Wistar rats; conditions: for reduction of cerebral infarct area / neurological deficit scores (effect in words) / ED40 (cerebral infarct area): vs model control group; for decrease of neurological deficit scores / ED30 (neurological deficit scores): i.v., 24 hours after administration; for neurological deficit scores (effect in words): intravenous injection
Protocol: Experimental Animal: The same as Example 1. Experimental Equipments: COOLPIX955 digital camera, 722 grating spectroscope, XHF-1 high-speed disperser, YKH-II liquid high-speed mixer, WZ-50C2 micro infusion pump. Experimental Methods: Wistar rats were anesthetized by intraperitoneally injecting 12% chloral hydrate in 350 mg/kg, and fixed in lateral decubitus position. The skin at the midpoint on the line from exterior auditory canal to canthus was cut. The muscle was separated layer by layer to expose zygomatic arch and the squamous part of temporal bone. The zygomatic arch was scissored and then placed under an operating microscope. A window of 2 mm diameter was drilled by using a dentistry drill at a position of 2 mm under the anterior joint between zygomatic arch and the squamous part of temporal bone, so as to expose the middle cerebral artery. A little piece of filter paper was applied onto the middle artery, and 10 μl of 50% FeCl3 aqueous solution was dripped onto the filter paper. The filter paper was removed after 30 min, and washed with physiological brine. Two to three drops of penicillin (1.6×10^5 U/mL) were added so as to prevent infection of the cut. Then the cut was sutured layer by layer.

Row | SMILES | times of active avoidance [1] | cerebral blood flow rate in normal rats (normal rats) | cerebral infarct area (effect in words) ([2]; 2.5 mg/kg, tendency of reducing) | reduction of cerebral infarct area ([2]; first of three doses) | decrease of neurological deficit scores ([2]; high dose) | ED30 (neurological deficit scores) [2] | neurological deficit scores (effect in words) [2] | decrease of neurological deficit scores ([2]; low dose) | decrease of neurological deficit scores ([2]; moderate dose) | reduction of cerebral infarct area ([2]; second of three doses) | reduction of cerebral infarct area ([2]; third of three doses) | ED40 (cerebral infarct area) [2] | time after administration till which cerebral blood flow rate was maintained at a relative high level (normal rats; normal rats) | cerebral infarct area (effect in words) ([2]; 5 and 10 mg/kg, effect increased with dose) | effect on cerebral infarct area relative to d-NBP ([2]; as calculated by converting into ED50) | cerebral infarct area (effect in words) ([2]; dose not given)
1 | CCCCC1OC(=O)c2ccccc21 (racemic) [dl-NBP, butylphthalide] | not observed | no such effects | not significant | 29.2% | 37.5% | 7.2 mg/kg | improvement | 15.6% | 21.9% | 35.2% | 44.4% | 7.1 mg/kg |  |  |  | 
2 | CCCC[C@@H]1OC(=O)c2ccccc21 [l-NBP, L-butylphthalide] | significantly increased | significantly increased |  | 38.4% | 35.9% | 6.2 mg/kg | improvement | 17.2% | 29.7% | 41.9% | 50.7% | 3.3 mg/kg | 50 min | significantly reduce | about 3.1 times | significantly reduce

Source: patent US9795585B2, “Methods of using L-butylphthalide for the prevention and treatment of cerebral ischemia disease” (priority 2004, dated 2017)
